US20190358348A1, “CHARACTERIZATION OF BIOLOGICAL TISSUES AT A CELLULAR LEVEL USING RED AND FAR-RED FLUORESCENT DYES” (IGR-Institut Gustave Roussy, priority 2012, published 2019)
Like-named read-outs stand apart in the source and are kept apart here.

Experiments:
[1] = cited from earlier work
[2] = system: popliteal and/or inguinal lymph node
[3] = macroscopic guidance of diagnostic procedures

Row | SMILES | side effects for the patients [1, 3] | further results
1 | CC1(C)C(/C=C/C=C/C=C/C=C2\N(CCCCS(=O)(=O)O)c3ccc4ccccc4c3C2(C)C)=[N+](CCCCS(=O)(=O)[O-])c2ccc3ccccc3c21 [ICG, Indocyanine green] | very limited side effects | 
2 | CN(C)c1ccc2nc3ccc(=[N+](C)C)cc-3sc2c1 [MB, Methylene blue] | very limited side effects | time to macroscopically visible diffusion of dye to the lymph node ([2]; male, Wistar, rat, in vivo): 5 min
3 | CCN(CC)c1ccc(C(=C2C=CC(=[N+](CC)CC)C=C2)c2cc(O)c(S(=O)(=O)[O-])cc2S(=O)(=O)[O-])cc1.[Na+] [PB, sodium patent blue V] |  | time to macroscopically visible diffusion of dye to the lymph node ([2]; rat, in vivo): 5 min; side effects for the patients ([1]; human, in vivo): very limited side effects
4 | Cc1cc2nc3ccc(N(C)C)cc3[s+]c2cc1N.[Cl-] [TB, Toluidine Blue] | very limited side effects | time to macroscopically visible diffusion of dye to the lymph node ([2]; sub-cutaneous injection, 100 μL into footpad): 5 min
5 | Cc1cc(O)c2c(=O)c3c(O)cc(O)c4c5c(O)cc(O)c6c(=O)c7c(O)cc(C)c8c1c2c(c34)c(c78)c65 [hypericin, Hypericin] | very limited side effects | 
